Test results taken from US20150018384A1, “TREATMENT FOR HIGH CHOLESTEROL” (FibroGen, Inc., priority 2012, published 2015).
Entries after “also recorded” stand apart in the source; their conditions may differ. Marks after values point to notes of the source that are not given here.

What was measured:
[1] = system: subjects with end stage renal disease (ESRD); experiment: ESRD subjects switched from epoetin alfa to Compound A or continued on epoetin alfa; format: in vivo, human; details: six weeks
Protocol: Mean total cholesterol change for the Compound A-treated subjects (all cohorts) was a decrease of 15 mg/dL compared to an increase of 18 mg/dL for the epoetin alfa treated subjects.

DIO mice = experiment: High cholesterol mouse model, diet induced obesity (DIO) mice; details: another study, 60 mg/kg three times a week for two weeks, n=10/group, FIG. 24
Description: Ten-week-old male apoE knockout mice (Jackson Laboratories, Bar Harbor, Me.) were fed a normal chow diet (0.02% cholesterol, 13.5% fat by weight; LabDiet). Ten-week-old male diet induced obese mice (DIO Mice, Jackson Laboratories, Bar Harbor, Me.) were fed a high fat diet (0.095% cholesterol, 60% fat by weight; ResearchDiets) starting at six-weeks-old. After 2 weeks of acclimatization, whole blood was collected for baseline measurement before administration of test reagents. All test reagents were administered orally by gavage needle three times a week for 2 weeks for the apoE mice, and three times a week for 4 weeks for the DIO mice. The animals were sacrificed at end of study. Whole blood was collected weekly in Heparin-tube by submandibular bleeding and isolated plasma was stored at −80° C. for measurement of total cholesterol.
DIO mice as described in Example 10 were used to test the effect of various compounds on cholesterol levels. Compound (60 mg/kg) or vehicle was administered to the mice (n=10/group) three times a week for four weeks. A statin compound (rosuvastatin) was also tested. Blood samples were collected at weekly and total cholesterol blood levels were tested.

PHD1 = PHD1 (Homo sapiens, UniProt Q96KS0); experiment: HIF prolyl hydroxylase enzyme assay, PHD1; format: biochemical
PHD1, sequence (Q96KS0 whole entry): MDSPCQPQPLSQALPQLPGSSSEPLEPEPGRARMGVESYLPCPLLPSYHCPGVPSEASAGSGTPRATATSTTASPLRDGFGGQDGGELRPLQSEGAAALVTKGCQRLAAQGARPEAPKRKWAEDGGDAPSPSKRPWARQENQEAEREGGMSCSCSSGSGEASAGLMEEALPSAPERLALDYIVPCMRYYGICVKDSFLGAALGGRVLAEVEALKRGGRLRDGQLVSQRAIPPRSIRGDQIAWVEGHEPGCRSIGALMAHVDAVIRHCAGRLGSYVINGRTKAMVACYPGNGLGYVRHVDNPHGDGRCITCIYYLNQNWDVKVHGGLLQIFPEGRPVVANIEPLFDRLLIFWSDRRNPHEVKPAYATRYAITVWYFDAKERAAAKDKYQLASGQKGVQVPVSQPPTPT
Description: Suitable assay methods are well known in the art.

healthy subjects = experiment: Circulating total cholesterol and LDL-C in healthy subjects dosed twice per week; format: in vivo, human; details: 1.88 mg/Kg orally twice per week, average (SD), n=6
Protocol: Subjects were fasted overnight prior on subsequent dosing days. Overnight fasting was not required on non-dosing days. The samples had been stored frozen at −70° C. for up to 6 years, and had undergone up to two thaw/freeze cycles prior to testing. Results are presented separately for samples collected during fasting: Day 1 (0, 1, 2 hrs post-dose), Day 2 (24 hrs), Day 3 (72 hrs), Day 7 (168 hrs), Day 10 (240 hrs) and Day 17 (408 hours).
Samples were analyzed using validated assays on a Roche Modular system. Total cholesterol was measured using the CHOD-PAP reagent from Roche, Cat. No. 11875540216. HDL cholesterol was measured using reagents from Polymedco, Cat. No. 9400 (data not shown). LDL cholesterol was measured using the LDL-C plus 2nd generation reagents from Roche, Cat. No. 04711220190. Triglycerides were measured using GPO-PAP reagent from Roche, Cat. No. 11730711216 (data not shown).

ApoE deficient mice = experiment: Cholesterol reduction and erythrogenesis in ApoE deficient mice, 4 weeks; format: in vivo, mouse; details: orally 2, 20, 60 or 100 mg/kg three times a week for 4 weeks, n=8/group
Protocol: Ten-week-old male apoE knockout mice (Jackson Laboratories, Bar Harbor, Me.) were fed a normal chow diet (0.02% cholesterol, 13.5% fat by weight; LabDiet). […] After 2 weeks of acclimatization, whole blood was collected for baseline measurement before administration of test reagents. […] The animals were sacrificed at end of study.
Total cholesterol and hemoglobin were measured weekly.

cynomolgus monkeys = experiment: Cholesterol levels after repeated oral administration in monkey toxicity studies; format: in vivo, cynomolgus monkey
Protocol: During these studies monkeys were fasted prior to each blood collection. Plasma samples were then evaluated at pre-dose and at different time-points for levels of total cholesterol.

[2] = system: subjects with chronic kidney disease (CKD); experiment: Phase 2b study in CKD subjects with anemia, Compound A vs placebo; format: in vivo, human
Protocol: The Hb target was 11 g/dL. The primary efficacy endpoint was the maximum change of Hb from baseline by Week 9.
Subjects were stratified by baseline (BL) total cholesterol (either >200 mg/dL or s 200 mg/dL) and analyzed for mean total cholesterol and LDL-C over the course of treatment.

[3] = system: subjects with end-stage renal disease (ESRD) receiving maintenance hemodialysis; experiment: Study 2: phase 2 study of compound A vs EPO in ESRD subjects on maintenance hemodialysis; format: in vivo, human
Protocol: Total cholesterol and lipid panels were measured by standard procedures.
Total cholesterol was measured from all subjects in Study 1 or Study 2 as part of the chemistry panel at prespecified time points.
Frozen serum samples, collected from subjects in Study 1 or Study 2, were selected for the lipid panel analysis based on the following criteria: 1) with matched baseline (D1W1) and; 2) at least one other time point. The complete lipid panel includes: total cholesterol (TC), HDL, LDL-measured, Triglycerides and VLDL (Calculated). Ratio of HDL/LDL or LDL/HDL were analyzed.
A total of n=20 subjects were selected and assayed for the complete lipid panel as described above. Subjects on this study protocol were not required to fast nor have any diet restrictions.

[4] = orally three times a week for 8 weeks
[5] = BL total cholesterol >200 mg/dL, visit D1W1 (baseline)
[6] = BL total cholesterol >200 mg/dL, visit W9
[7] = BL total cholesterol ≦200 mg/dL, visit D1W1 (baseline)
[8] = BL total cholesterol ≦200 mg/dL, visit W9
[9] = n=20, 9 weeks vs baseline, FIG. 8A

SMILES: Cc1nc(C(=O)NCC(=O)O)c(O)c2ccc(Oc3ccccc3)cc12 [Compound A, [(4-Hydroxy-1-methyl-7-phenoxy-isoquinoline-3-carbonyl)-amino]-acetic acid]
- Total Cholesterol change ([1]; Mean (±SD), Compound A orally three times a week (n=74) or continued epoetin alfa (n=22)): −15 (38)** mg/dL
- Mean total cholesterol change, decrease ([1]; all cohorts): 15 mg/dL
- total cholesterol levels compared to vehicle treated (DIO mice): statistically significant decrease in total cholesterol levels
- IC50 (PHD1): 200 to 2000 nM
- LDL Cholesterol (healthy subjects; 0 hours): 95 (36) mg/dL
- Total Cholesterol (healthy subjects; 0 hours): 165 (33) mg/dL
- LDL Cholesterol (healthy subjects; 1 hours): 95 (36) mg/dL
- Total Cholesterol (healthy subjects; 1 hours): 164 (30) mg/dL
- LDL Cholesterol (healthy subjects; 2 hours): 97 (35) mg/dL
- Total Cholesterol (healthy subjects; 2 hours): 167 (32) mg/dL
- LDL Cholesterol (healthy subjects; 24 hours): 96 (36) mg/dL
- Total Cholesterol (healthy subjects; 24 hours): 161 (31) mg/dL
- LDL Cholesterol (healthy subjects; 72 hours): 92 (27) mg/dL
- Total Cholesterol (healthy subjects; 72 hours): 154 (26) mg/dL
- LDL Cholesterol (healthy subjects; 168 hours): 77 (31) mg/dL
- Total Cholesterol (healthy subjects; 168 hours): 144 (24) mg/dL
- LDL Cholesterol (healthy subjects; 240 hours): 78 (29) mg/dL
- Total Cholesterol (healthy subjects; 240 hours): 144 (23) mg/dL
- LDL Cholesterol (healthy subjects; 408 hours): 86 (29) mg/dL
- Total Cholesterol (healthy subjects; 408 hours): 152 (22) mg/dL
- doses with statistically significant decreases in total cholesterol (% change) (ApoE deficient mice): 100 mg/kg
- hemoglobin compared to vehicle-treated (ApoE deficient mice): statistically significant increases in hemoglobin compared to vehicle-treated at the 60 mg/kg and 100 mg/kg doses; also recorded: significant increase in hemoglobin for the 60 mg/kg and 100 mg/kg doses
- total cholesterol (% change from baseline) compared to vehicle-treated (ApoE deficient mice): lower total cholesterol levels; also recorded: significant percent change in total cholesterol from baseline for the 100 mg/kg dose
- total cholesterol levels (cynomolgus monkeys; 22-week study, intermittent oral dosing 1, 10, 30 and 40 mg/kg, day 28 to day 152): dose-dependent decrease in cholesterol levels
- total cholesterol levels (cynomolgus monkeys; 22-week study, intermittent oral dosing 1, 10, 30 and 40 mg/kg, day 28 to day 152, listed as compound A): dose dependent decrease in total cholesterol
- total cholesterol levels (cynomolgus monkeys; 28-Day study, daily oral dosing 1, 10 and 30 mg/kg, day 28): dose-dependent decrease in cholesterol levels
- total cholesterol levels (cynomolgus monkeys; 28-Day study, daily oral dosing 1, 10 and 30 mg/kg, day 28, listed as compound A): dose dependent decrease in total cholesterol
- cholesterol (cynomolgus monkeys; additional monkey study, up to one year): decreases in cholesterol were observed and maintained for up to one year
- Mean BL LDL-C ([2]; baseline (pre-treatment)): 102.60 mg/dL
- Mean BL Total Cholesterol ([2]; baseline (pre-treatment)): 166.84 mg/dL
- Cholesterol total % change [2, 4]: −18.5%
- Cholesterol total change [2, 4]: -33.9 mg/dL
- HDL-C [2, 4]: decreased
- LDL Cholesterol % change [2, 4]: −23.2%
- LDL cholesterol change [2, 4]: -27.9 mg/dL
- percentage of subjects who achieved Hb response (Hb increase of >1 g/dL from baseline Hb) [2, 4]: 86.4%
- mean total cholesterol over the course of treatment ([2]; subjects stratified by BL total cholesterol ≦200 (n=48) or >200 mg/dL (n=13), FIG. 14): reduction
- mean LDL-C over the course of treatment ([2]; subjects stratified by BL total cholesterol ≦200 (n=48) or >200 mg/dL (n=13), FIG. 15): reduction
- reduction in total cholesterol by baseline total cholesterol ≦200 or >200 mg/dL ([3]; 19-week study, FIGS. 6A and B): appears to be larger for the subjects with higher cholesterol at BL
- LDL [3, 5]: 203.40
- LDL change from BL [3, 5]: 0.00
- TC [3, 5]: 275.80
- TC change from BL [3, 5]: 0.00
- LDL [3, 6]: 164.20
- LDL change from BL [3, 6]: −39.20
- TC [3, 6]: 239.20
- TC change from BL [3, 6]: −36.60
- LDL [3, 7]: 81.20
- LDL change from BL [3, 7]: 0.00
- TC [3, 7]: 157.90
- TC change from BL [3, 7]: 0.00
- LDL [3, 8]: 62.20
- LDL change from BL [3, 8]: −19.00
- TC [3, 8]: 128.20
- TC change from BL [3, 8]: −29.70
- hemoglobin levels ([3]; ESRD patients on dialysis, 0.8 to 3.0 mg/kg three times a week): effectively corrected hemoglobin levels
- total cholesterol, subjects with or without prior history of hyperlipidemia and/or hypercholesterolemia ([3]; Study 2 (6 weeks), FIG. 4): reduced the total cholesterol level of subjects in similar fashion
- HDL, lipid panel [3, 9]: slight decrease
- LDL, lipid panel [3, 9]: significant reduction
- VLDL, lipid panel [3, 9]: significant reduction
- total cholesterol, lipid panel [3, 9]: significant reduction
- triglycerides, lipid panel [3, 9]: significant reduction
- change in total cholesterol from baseline over time ([3]; treated for 19 weeks, FIG. 2): significant decrease in total cholesterol
